Marks after values point to notes of the source that are not given here.
Legend:
J774A.1 macrophages = assay: Macrophage activation, NO production (Greiss reagent); assay type: cell-based
Protocol: J774A.1 macrophages (ATCC TIB67, 5×10^4 viable cells/well) were cultured in Dulbecco's Modified Eagle Medium (DMEM, high glucose)+10% FBS+100 U/ml penicillin+100 μg/ml streptomycin for 24 hr prior to treatment addition. NO production was determined colorimetrically using the Greiss reagent 24 hr after experimental treatments. […] Statistical significance was analyzed by comparison of mean values using the Student's t test (unpaired, two-tailed).

NK cells = assay: NK cell activity of splenocytes from treated mice, chromium-release assay; assay type: in vivo
Source text: The results are depicted in Table 2.

clinical mastitis = assay: Clinical mastitis, ICPF versus Polyflex; assay type: in vivo, bovine
Protocol: Nineteen animals were showing signs of clinical mastitis, i.e. abnormal milk appearance, painful teat, etc. These animals were randomly assigned to either a test or a control group. The control group animals (n=10) were treated according to the dairy's normal practice for treatment of clinical cases of mastitis, i.e. intramuscular injection of Polyflex brand (Fort Dodge Animal Health) of ampicillin (5 mg/lb×3 days). […] The SCC's for the treatment and control animals were compared 30 days later. The means of the pre-treatment test and control groups were determined to not be statistically different and neither were the standard deviations of the two groups statistically different. […] Two animals in the test group were refractory to treatment.

[1] = 0.25 ml i.p. (5 mg ICPF or 20 μg Poly I:C), spleens harvested the following day, mean n = 3 with standard error

With “ICPF-peptide: Purified peptide from ICPF (RSVSLSYRF)” the “induction of NO in combination with LPS” value (J774A.1 macrophages; ICPF 100 μg/ml or ICPF-peptide 10 μg/ml with LPS 0-10 μg/ml in the absence of IFN-γ) was “unable to induce NO”, the “amount of NO induced by the minimal stimulatory dose of LPS + IFN-γ” value (J774A.1 macrophages; ICPF-peptide 0.1-100 μg/ml, LPS 10 ng/ml + IFN-γ 1-5 U/ml) was “did not modulate the amount of NO” and the “dose of LPS required to induce NO” value (J774A.1 macrophages; IFN-γ stimulated macrophages, ICPF 100 μg/ml, ICPF-peptide 10 μg/ml) was “Neither ICPF (100 μg/ml) nor ICPF-peptide (10 μg/ml) altered the dose of LPS required to induce NO”. The “dose of IFN-γ required to induce NO” value (J774A.1 macrophages; LPS-stimulated macrophages, ICPF 100 μg/ml, ICPF-peptide 10 μg/ml) was “Neither ICPF (100 μg/ml) nor ICPF-peptide (10 μg/ml) altered the dose of IFN-γ required to induce NO” and the “induction of NO” value (J774A.1 macrophages; purified peptide 0.1-100 μg/ml, absence or presence of IFN-γ) was “failed to induce NO”.

Poly I:C was tested, and the “Percent 51Cr released at E:T ratios 50:1” value (NK cells; [1]) was 19.1 ± 1.0^b Percent, the “Percent 51Cr released at E:T ratios 100:1” value (NK cells; [1]) was 31.5 ± 1.1^b Percent and the “Percent 51Cr released at E:T ratios 200:1” value (NK cells; [1]) was 35.3 ± 1.6^b Percent. For the same compound, the “direct activation of NK cells” value (NK cells; naive mice, E:T ratios of 200:1, 100:1, and 50:1) was “induced activation of NK cells”.

With `CC1(C)S[C@@H]2[C@H](NC(=O)[C@H](N)c3ccccc3)C(=O)N2[C@H]1C(=O)O` [Polyflex, ampicillin] the “animals that showed improvement” value (clinical mastitis; 30 days, Polyflex 5 mg/lb x 3 days i.m. (n=10)) was “one” and the “average somatic cell count for the group increased by” value (clinical mastitis; Polyflex 5 mg/lb x 3 days i.m., n=10, test period) was 7%.

Source: patent publication US7358044B2, “Prophylactic and therapeutic benefits of a new class of immune stimulating peptides” (priority 2003, dated 2008)
